According to US20100009395A1, “LUMINESCENCE ASSAY UTILIZING A GENETICALLY MODIFIED CELL LINE” (priority 2006, published 2010):
“Also recorded” adds a separate entry of the source.

How the values were obtained:
Type in all cases: cell-based
[1] = system: native I-kappa B and I-kappa B-luciferase (IkB-Luc); assay: Western blot of total cell lysates from TNF-alpha-treated HCT-116 cells; conditions: incubation with TNF-alpha
Description: In this experiment the degradation of I-kappa B was investigated. The I-kappa B was stably expressed as a fusion protein with the firefly luciferase in HCT-116 colon cancer cells. Presence of I-kappa B can then be monitored by luminescence activity. It was determined that the fusion protein is subject to similar levels of degradation in response to a stimulus such as tumor necrosis factor-alpha (TNF-alpha), a known inducer of phosphorylation and degradation of I-kappa B, as would be the case with the native of I-kappa B. Western blot analyses of total cell lysates from TNF-alpha-treated cells were subjected to western blot analyses. Both, native I-kappa B and I-kappa B-luciferase (IkB-Luc) levels were decreased within 20 minutes of incubation with TNF-alpha.

[2] = system: I-kappa B-luciferase (IkB-Luc) fusion protein; assay: IkB-Luc degradation luciferase (luminescence imaging) assay in stably transfected HCT-116 cells; conditions: human urine sample two hours after ingestion of 8 g curcumin
Description: This construct has been transfected into HeLa and HCT-116 cells.
The substrate for luciferase, D-luciferin was also added to the cells at the same time, and the cells were incubated in extremely light-tight, low-background imaging chamber, at 37° C. Photon luminescence emitted from the cells is detected with a back-thinned CCD camera, designed for high-efficiency photon detection, particularly in the important red region of the spectrum.
The imaging assay cells were plated in a 24 well dish and allowed to grow for 24 hours; they were then treated with 10 ng/ml TNF-alpha, the substrate for luciferase, D-luciferin was also added at the same time, the cells were then incubated in a light-tight, low background imaging chamber, at 37° C.
Photon luminescence emitted from the cells was detected with a back-thinned CCD camera, designed for high-efficiency photon detection. The CCD is cooled and the electronic readout is optimized so that the data gathered extremely low noise.
HCT-116 cells stably expressing I-kB-Luc were incubated for 2 hours with increasing concentrations (0-1000 μl) control or post-curcumin ingested urine. Subsequently, some of the cells were treated with TNF-alpha. The level of I-kB degradation was determined by the luciferase assay. […] Similar experiments were conducted with black raspberry extracts.

COX-2 gene expression = assay: COX-2 expression in HCT-116 cells after induction with TNF-alpha, EGF or IL-1; conditions: 1 hour pre-incubation, then TNF-alpha, EGF or IL-1 for 1 hour
Description: Endogenous levels of COX-2 were determined following addition of the three botanical extracts. After incubating the HCT-116 cells with the different fractions for 1 hour, the cells were treated with TNF-alpha, EGF or IL-1 […] (all known inducers of COX-2 expression) for an additional 1 hour to induce high levels of COX-2 expression.

TNF-alpha
time to decrease of native I-kappa B and IkB-Luc levels [1]: ≤ 20 min

COc1cc(/C=C/C(=O)CC(=O)/C=C/c2ccc(O)c(OC)c2)ccc1O [curcumin]
protection of IkB-Luc from TNF-alpha-mediated degradation [2]: significant increase in the protection of the IkB-Luc from TNF-alpha-mediated degradation; also recorded: reduced the TNF degradation of I kappa B-Luc | protection of IkB-Luc from TNF-alpha-mediated degradation ([2]; listed as cucurmin): significantly inhibited the IkB-Luc degradation | COX-2 gene expression (COX-2 gene expression): inhibitor of COX-2 gene expression
